Holding throughout (assay type): cell-based
One data set deals with hERG K+ channel (Homo sapiens, UniProt Q12809). Nature of the data set: hERG K+ Channel Block. In general terms: hERG is a cardiac potassium channel; its block is linked to QT prolongation.
The target of data set [1] is T1, human α1H T-type channels (Homo sapiens, UniProt O95180).
T1 construct: expressed in transfected cells; host or cells: HEK 293
Nature of the data set: T-type calcium channel block, whole cell patch clamp in HEK cells (α1H). The settings on record: HEK cells, patch clamp, mainly non-inactivated protocol; values above 10 μM shown as 10 μM; read-out: T-type Calcium Channel Block α1H IC50. (In general: Patch clamp records ionic current or voltage across a cell membrane.)

For data set [2], the target named is T2, human α1G T-type channels (Homo sapiens, UniProt O43497).
T2 construct: expressed in transfected cells; host or cells: HEK 293
T2 sequence (O43497 whole entry): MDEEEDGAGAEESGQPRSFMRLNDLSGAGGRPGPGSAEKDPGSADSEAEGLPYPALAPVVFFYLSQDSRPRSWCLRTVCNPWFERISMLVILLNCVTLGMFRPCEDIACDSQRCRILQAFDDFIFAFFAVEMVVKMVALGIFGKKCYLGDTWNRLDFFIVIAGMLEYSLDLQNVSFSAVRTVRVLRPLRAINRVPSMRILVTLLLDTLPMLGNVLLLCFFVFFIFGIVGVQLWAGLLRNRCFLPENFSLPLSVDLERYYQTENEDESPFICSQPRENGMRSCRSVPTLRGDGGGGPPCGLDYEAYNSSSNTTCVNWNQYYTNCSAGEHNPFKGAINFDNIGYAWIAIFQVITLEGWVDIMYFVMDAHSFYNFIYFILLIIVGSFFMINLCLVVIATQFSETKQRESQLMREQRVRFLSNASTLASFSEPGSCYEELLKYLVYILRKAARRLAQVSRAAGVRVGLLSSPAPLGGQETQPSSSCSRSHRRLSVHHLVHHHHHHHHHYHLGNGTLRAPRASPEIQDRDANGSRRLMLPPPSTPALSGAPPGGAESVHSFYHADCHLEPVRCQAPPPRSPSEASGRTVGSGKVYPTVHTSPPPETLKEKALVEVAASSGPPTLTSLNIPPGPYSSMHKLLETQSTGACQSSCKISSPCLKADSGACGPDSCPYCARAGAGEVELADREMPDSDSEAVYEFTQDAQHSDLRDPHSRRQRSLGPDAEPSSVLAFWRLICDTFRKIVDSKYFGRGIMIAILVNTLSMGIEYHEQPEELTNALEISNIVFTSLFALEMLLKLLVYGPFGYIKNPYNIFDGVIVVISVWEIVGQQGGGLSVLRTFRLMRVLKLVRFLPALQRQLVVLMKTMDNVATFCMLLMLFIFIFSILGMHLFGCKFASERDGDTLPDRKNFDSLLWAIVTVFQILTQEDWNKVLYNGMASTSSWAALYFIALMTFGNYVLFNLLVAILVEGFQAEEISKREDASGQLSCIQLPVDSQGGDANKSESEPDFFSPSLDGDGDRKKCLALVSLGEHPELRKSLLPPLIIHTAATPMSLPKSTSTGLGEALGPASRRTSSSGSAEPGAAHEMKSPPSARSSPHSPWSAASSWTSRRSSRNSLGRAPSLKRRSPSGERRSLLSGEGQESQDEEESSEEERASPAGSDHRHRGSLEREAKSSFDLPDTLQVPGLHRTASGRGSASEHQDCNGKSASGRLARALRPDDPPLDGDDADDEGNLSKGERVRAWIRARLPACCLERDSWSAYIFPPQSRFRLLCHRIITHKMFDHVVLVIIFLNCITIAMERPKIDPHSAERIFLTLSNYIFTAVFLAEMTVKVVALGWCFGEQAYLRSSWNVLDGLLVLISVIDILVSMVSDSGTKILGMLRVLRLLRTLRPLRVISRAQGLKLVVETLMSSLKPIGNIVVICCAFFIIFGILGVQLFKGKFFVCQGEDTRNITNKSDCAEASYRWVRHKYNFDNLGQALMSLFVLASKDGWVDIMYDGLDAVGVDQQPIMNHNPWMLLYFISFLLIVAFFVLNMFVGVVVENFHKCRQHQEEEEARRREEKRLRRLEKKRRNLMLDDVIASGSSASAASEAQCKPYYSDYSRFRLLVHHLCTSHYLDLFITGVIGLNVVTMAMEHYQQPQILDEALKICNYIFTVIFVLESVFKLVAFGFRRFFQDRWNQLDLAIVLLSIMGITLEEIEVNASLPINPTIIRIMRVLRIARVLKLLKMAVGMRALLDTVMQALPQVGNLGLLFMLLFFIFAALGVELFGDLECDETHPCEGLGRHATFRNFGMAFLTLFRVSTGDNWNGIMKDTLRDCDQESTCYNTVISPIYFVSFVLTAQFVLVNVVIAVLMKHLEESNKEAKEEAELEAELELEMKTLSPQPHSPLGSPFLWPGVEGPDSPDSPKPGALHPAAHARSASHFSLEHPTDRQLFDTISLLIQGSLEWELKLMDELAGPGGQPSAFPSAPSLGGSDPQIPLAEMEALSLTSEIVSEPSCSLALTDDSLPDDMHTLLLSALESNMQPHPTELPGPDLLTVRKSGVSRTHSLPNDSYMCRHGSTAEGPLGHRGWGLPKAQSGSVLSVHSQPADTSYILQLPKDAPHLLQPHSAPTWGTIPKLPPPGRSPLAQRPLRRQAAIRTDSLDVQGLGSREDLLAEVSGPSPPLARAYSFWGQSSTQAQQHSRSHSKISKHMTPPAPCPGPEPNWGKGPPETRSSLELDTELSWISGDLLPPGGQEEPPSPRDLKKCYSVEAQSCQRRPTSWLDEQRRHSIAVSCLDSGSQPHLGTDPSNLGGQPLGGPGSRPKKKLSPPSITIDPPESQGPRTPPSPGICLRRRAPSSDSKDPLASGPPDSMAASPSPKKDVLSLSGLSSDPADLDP
Briefly: T-type calcium channel block, whole cell patch clamp in HEK cells (α1G). The note with it: HEK cells, patch clamp, mainly non-inactivated protocol; values above 10 μM shown as 10 μM, below 0.30 μM shown as 0.30 μM; read-out: T-type Calcium Channel Block α1G IC50.

Read-outs that look alike come from different tables or passages of the source.

hERG K+ channel, sequence (Q12809 whole entry): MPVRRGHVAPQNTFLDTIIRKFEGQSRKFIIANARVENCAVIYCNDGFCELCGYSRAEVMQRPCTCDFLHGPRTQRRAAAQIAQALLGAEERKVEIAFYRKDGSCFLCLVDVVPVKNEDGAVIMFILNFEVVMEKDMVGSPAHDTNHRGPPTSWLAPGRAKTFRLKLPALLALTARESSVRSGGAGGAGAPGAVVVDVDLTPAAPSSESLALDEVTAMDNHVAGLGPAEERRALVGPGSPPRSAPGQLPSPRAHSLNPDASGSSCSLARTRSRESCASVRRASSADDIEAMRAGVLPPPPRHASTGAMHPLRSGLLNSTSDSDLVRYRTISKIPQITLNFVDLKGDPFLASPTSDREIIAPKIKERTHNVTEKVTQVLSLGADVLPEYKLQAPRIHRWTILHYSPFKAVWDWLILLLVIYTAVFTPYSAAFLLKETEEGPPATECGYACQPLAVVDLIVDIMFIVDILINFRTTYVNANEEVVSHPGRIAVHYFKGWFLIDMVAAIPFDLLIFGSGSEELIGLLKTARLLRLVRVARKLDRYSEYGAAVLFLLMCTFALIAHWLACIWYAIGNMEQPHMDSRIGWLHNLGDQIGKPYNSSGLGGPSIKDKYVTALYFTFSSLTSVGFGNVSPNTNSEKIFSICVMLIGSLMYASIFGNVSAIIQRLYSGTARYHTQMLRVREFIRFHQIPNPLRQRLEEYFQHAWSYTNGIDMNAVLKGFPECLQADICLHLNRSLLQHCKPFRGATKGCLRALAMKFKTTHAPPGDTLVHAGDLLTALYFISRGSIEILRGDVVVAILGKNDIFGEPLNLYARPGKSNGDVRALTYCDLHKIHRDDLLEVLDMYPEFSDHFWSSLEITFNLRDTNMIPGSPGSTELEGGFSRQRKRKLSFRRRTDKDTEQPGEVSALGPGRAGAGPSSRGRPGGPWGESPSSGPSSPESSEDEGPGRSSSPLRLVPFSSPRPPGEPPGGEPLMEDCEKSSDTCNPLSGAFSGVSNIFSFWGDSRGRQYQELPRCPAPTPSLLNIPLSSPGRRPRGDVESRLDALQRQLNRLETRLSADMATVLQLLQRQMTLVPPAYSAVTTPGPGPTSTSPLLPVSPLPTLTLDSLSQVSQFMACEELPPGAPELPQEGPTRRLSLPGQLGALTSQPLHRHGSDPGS

On to `CC(C)CS(=O)(=O)NCCN1CCC(CNC(=O)c2cc(F)cc(C(F)(F)F)c2)CC1` [Compound 26, 3-fluoro-N-((1-(2-(2-methylpropylsulfonamido)ethyl)piperidin-4-yl)methyl)-5-(trifluoromethyl)benzamide], for which the results for the IC50 (on hERG K+ channel; in data set [1]) were 2600 nM and 200 nM, respectively.

Take `O=C(NCC1CCN(CCNC(=O)C2CC2)CC1)c1cc(C(F)(F)F)cc(C(F)(F)F)c1` [Compound 59, N-((1-(2-(cyclopropanecarboxamido)ethyl)piperidin-4-yl)methyl)-3,5-bis(trifluoromethyl)benzamide]: the half-maximal inhibitory concentration (IC50) was 2800 nM against hERG K+ channel and 1660 nM in data set [1].

Turning to `O=C(NCC1CCN(CCNS(=O)(=O)C(F)(F)F)CC1)c1cc(Br)cc(C(F)(F)F)c1` [Compound 115, 3-bromo-5-(trifluoromethyl)-N-((1-(2-(trifluoromethylsulfonamido)ethyl)piperidin-4-yl)methyl)benzamide], the IC50 on hERG K+ channel (human) is not below 8300 nM; in data set [1], 230 nM.

As to `CC(C)(C)C(O)CN1CCC(CC(=O)Nc2cc(C(F)(F)F)cc(C(F)(F)F)c2)CC1` (stereo not drawn) [Compound 153, N-(3,5-bis(trifluoromethyl)phenyl)-2-(1-(2-hydroxy-3,3-dimethylbutyl)piperidin-4-yl)acetamide], the half-inhibitory concentration (IC50) against hERG K+ channel is 2800 nM; in data set [1] it was 70 nM; in data set [2], less than 300 nM.

`NC1(CN2CCC(CC(=O)Nc3cc(C(F)(F)F)cc(C(F)(F)F)c3)CC2)CCCC1` [Compound 159, 2-(1-((1-aminocyclopentyl)methyl)piperidin-4-yl)-N-(3,5-bis(trifluoromethyl)phenyl)acetamide]: the figures for the IC50 (on hERG K+ channel; in data set [1]; in data set [2]) were 1300 nM, 3360 nM and 310 nM, respectively.

Regarding `CS(=O)(=O)NC1(CN2CCC(CC(=O)Nc3cc(C(F)(F)F)cc(C(F)(F)F)c3)CC2)CCCC1` [Compound 160, N-(3,5-bis(trifluoromethyl)phenyl)-2-(1-((1-(methylsulfonamido)cyclopentyl)methyl)piperidin-4-yl)acetamide], the figures for the IC50 (against hERG K+ channel; in data set [1]; in data set [2]) were 190 nM, 500 nM and 20 nM, respectively.

Take `O=C(CC1CCN(CC(O)C(F)(F)F)CC1)Nc1cc(C(F)(F)F)cc(C(F)(F)F)c1` (stereo not drawn) [Compound 178, N-(3,5-bis(trifluoromethyl)phenyl)-2-(1-(3,3,3-trifluoro-2-hydroxypropyl)piperidin-4-yl)acetamide]: the IC50 against hERG K+ channel is 1600 nM; in data set [1], 5100 nM; in data set [2], 720 nM.

Regarding `O=C(CC1CCN(CC2(NS(=O)(=O)C3CC3)CCCC2)CC1)Nc1cc(C(F)(F)F)cc(C(F)(F)F)c1` [Compound 179, N-(3,5-bis(trifluoromethyl)phenyl)-2-(1-((1-(cyclopropanesulfonamido)cyclopentyl)methyl)piperidin-4-yl) acetamide], the results for the half-maximal inhibitory concentration (IC50) (against hERG K+ channel; in data set [1]; in data set [2]) were 330 nM, 80 nM and 2 nM, respectively.

Regarding `CC(C)(C)C(=O)NCCN1CCC(CC(=O)Nc2cc(C(F)(F)F)cc(C(F)(F)F)c2)CC1` [Compound 334, N-(2-(4-(2-(3,5-bis(trifluoromethyl)phenylamino)-2-oxoethyl)piperidin-1-yl)ethyl)pivalamide], the IC50 at hERG K+ channel was 920 nM; in data set [1] it was 220 nM; in data set [2], less than 300 nM.

Regarding `O=C(NCC1CCN(CCNC(=O)C2(C(F)(F)F)CC2)CC1)c1cc(F)cc(C(F)(F)F)c1` [Compound 343, 3-fluoro-5-(trifluoromethyl)-N-((1-(2-(1-(trifluoromethyl)cyclopropanecarbox-amido)ethyl)piperidin-4-yl)methyl) benzamide], the IC50 was found to be 6200 nM on hERG K+ channel, 130 nM in data set [1] and 330 nM in data set [2].

For `CC(C)NC(=O)CN1CCC(CNC(=O)c2cc(C(F)(F)F)cc(C(F)(F)F)c2)CC1` [Compound 344, N-((1-(2-(isopropylamino)-2-oxoethyl)piperidin-4-yl)methyl)-3,5-bis(trifluoromethyl)benzamide], the IC50 was 9100 nM against hERG K+ channel, 120 nM in data set [1] and less than 300 nM in data set [2].

With `Cc1cc(C)cc(C(=O)NCC2CCN(CC(=O)NC(C)(C)C)CC2)c1` [Compound 362, N-((1-(2-(tert-butylamino)-2-oxoethyl)piperidin-4-yl)methyl)-3,5-dimethylbenzamide], the values for the IC50 (on hERG K+ channel (human); in data set [1]; in data set [2]) were not below 8300 nM, 170 nM and less than 300 nM, respectively.

In the case of `Cc1cc(F)cc(C(=O)NCC2CCN(CC(=O)NC(C)(C)C)CC2)c1` [Compound 363, N-((1-(2-(tert-buylamino)-2-oxoethyl)piperidin-4-yl)methyl)-3-fluoro-5-methylbenzamide], the results for the IC50 (on hERG K+ channel (human); in data set [1]; in data set [2]) were not below 8300 nM, 200 nM and less than 300 nM, respectively.

Regarding `COc1cc(F)cc(C(=O)NCC2CCN(CC(=O)NC(C)(C)C)CC2)c1` [Compound 366, N-((1-(2-(tert-butylamino)-2-oxoethyl)piperidin-4-yl)methyl)-3-fluoro-5-methoybenzamide], the half-inhibitory concentration (IC50) is not below 8300 nM on hERG K+ channel (human), 120 nM in data set [1] and less than 300 nM in data set [2].

As for `CC(C)(C)NC(=O)CN1CCC(CNC(=O)c2cccc(C(F)(F)F)c2)CC1` [Compound 371, N-((1-(2-(tert-butylamino)-2-oxoethyl)piperidin-4-yl)methyl)-3-(trifluoromethyl)benzamide], the half-inhibitory concentration (IC50) on hERG K+ channel was 14700 nM; in data set [1], 140 nM; in data set [2] it was less than 300 nM.

Regarding `CC(C)(C)NC(=O)CN1CCC(CNC(=O)c2cccc(Br)c2)CC1` [Compound 374, 3-bromo-N-((1-(2-(tert-butylamino)-2-oxoethyl)piperidin-4-yl)methyl) benzamide], the figures for the concentration for half-maximal inhibition (IC50) (against hERG K+ channel; in data set [1]; in data set [2]) were 7800 nM, 90 nM and less than 300 nM, respectively.

As for `CC(C)(C)NC(=O)CN1CCC(CNC(=O)c2cccc(OC(F)(F)F)c2)CC1` [Compound 375, N-((1-(2-(tert-butylamino)-2-oxoethyl)piperidin-4-yl)methyl)-3-(trifluoromethoxy)benzamide], the IC50 at hERG K+ channel is 8800 nM; in data set [1], 70 nM; in data set [2], less than 300 nM.

As to `CC(C)(C)NC(=O)CN1CCC(CNC(=O)c2cc(F)cc(C(F)(F)F)c2)CC1` [Compound 376, N-((1-(2-(tert-butylamino)-2-oxoethyl)piperidin-4-yl)methyl)-3-fluoro-5-(trifluoromethyl)benzamide], the values for the concentration for half-maximal inhibition (IC50) (on hERG K+ channel; in data set [1]; in data set [2]) were 11000 nM, 160 nM and less than 300 nM, respectively.

On to `CC(C)S(=O)(=O)NCCN1CCC(CC(=O)Nc2cc(Br)cc(C(F)(F)F)c2)CC1` [Compound 391, N-(3-bromo-5-(trifluoromethyl)phenyl)-2-(1-(2-(1-methylethylsulfonamido)ethyl)piperidin-4-yl)acetamide], for which the half-inhibitory concentration (IC50) against hERG K+ channel is 630 nM; in data set [2] it was less than 300 nM.

As for `CC(C)CS(=O)(=O)NCCN1CCC(CC(=O)Nc2cc(F)cc(C(F)(F)F)c2)CC1` [Compound 427, N-(3-fluoro-5-(trifluoromethyl)phenyl)-2-(1-(2-(2-methylpropylsulfonamido)ethyl)piperidin-4-yl)acetamide], the half-maximal inhibitory concentration (IC50) at hERG K+ channel is 450 nM; in data set [2], less than 300 nM.

`COc1cc(OC)cc(C(=O)NCC2CCN(CC(=O)NC(C)(C)C(F)(F)F)CC2)c1` [Compound 457, 3,5-dimethoxy-N-((1-(2-oxo-2-(1,1,1-trifluoro-2-methylpropan-2-ylamino)ethyl)piperidin-4-yl)methyl)benzamide]: the IC50 is not below 16600 nM at hERG K+ channel (human), 50 nM in data set [1] and less than 300 nM in data set [2].

Take `CC(C)(NC(=O)CN1CCC(CNC(=O)c2cccc(Cl)c2)CC1)C(F)(F)F` [Compound 460, 3-chloro-N-((1-(2-oxo-2-(1,1,1-trifluoro-2-methylpropan-2-ylamino)ethyl)piperidin-4-yl)methyl)benzamide]: the half-inhibitory concentration (IC50) is 6900 nM on hERG K+ channel, 30 nM in data set [1] and less than 300 nM in data set [2].

As for `CC(C)(NC(=O)CN1CCC(CNC(=O)c2cc(F)cc(Cl)c2)CC1)C(F)(F)F` [Compound 461, 3-chloro-5-fluoro-N-((1-(2-oxo-2-(1,1,1-trifluoro-2-methylpropan-2-ylamino)ethyl)piperidin-4-yl)methyl)benzamide], the half-maximal inhibitory concentration (IC50) was 7400 nM against hERG K+ channel, 20 nM in data set [1] and less than 300 nM in data set [2].

In the case of `CS(=O)(=O)c1cc(C(=O)NCC2CCN(CC(=O)NC3CCCC3)CC2)cc(C(F)(F)F)c1` [Compound 585, N-((1-(2-(cyclopentylamino)-2-oxoethyl)piperidin-4-yl)methyl)-3-(methylsulfonyl)-5-(trifluoromethyl)benzamide], the IC50 in data set [1] and in data set [2] was more than 10000 nM each time.

Consider `CS(=O)(=O)c1cc(C(=O)NCC2CCN(CCNC(=O)C3(C(F)(F)F)CCC3)CC2)cc(C(F)(F)F)c1` [Compound 586, 3-(methylsulfonyl)-5-(trifluoro-methyl)-N-((1-(2-(1-(trifluoromethyl)cyclobutane-carboxamido)ethyl)piperidin-4-yl)methyl)benzamide], for which the IC50 is 4800 nM in data set [1] and more than 10000 nM in data set [2].

Regarding `CC(C)(C(=O)NCCN1CCC(CNC(=O)c2cc(C(F)(F)F)cc(S(C)(=O)=O)c2)CC1)C(F)(F)F` [Compound 587, 3-(methylsulfonyl)-N-((1-(2-(3,3,3-trifluoro-2,2-dimethyl-propanamido)ethyl)piperidin-4-yl)methyl)-5-(trifluoromethyl) benzamide], the values for the IC50 in data set [1] and in data set [2] were 3590 nM and more than 10000 nM, respectively.

For the compound `CN(C(=O)CN1CCC(CNC(=O)c2cc(F)cc(C(F)(F)F)c2)CC1)C1(C)CCC1` [Compound 594, 3-fluoro-N-((1-(2-(methyl(1-methylcyclobutyl)amino)-2-oxoethyl)piperidin-4-yl)methyl)-5-(trifluoromethyl)benzamide], the IC50 against hERG K+ channel (human) is not below 17000 nM; in data set [1], 160 nM.

By IC50 is commonly meant the concentration that gives 50% inhibition.

The values above are taken from patent US8569344B2, “N-piperidinyl acetamide derivatives as calcium channel blockers” (Zalicus Pharmaceuticals Ltd., priority 2008, dated 2013).
